The source made the active and inactive calls. The calls are words filed in the database; no cut-off is given here.
How the values were obtained:
[1] = Antiproliferative activity against human SMMC7721 cells over expressing EGFR after 48 hrs by MTT assay; assay type: functional, cell-based; settings: SMMC-7721, 48 h
NCI-H1975 = assay: Antiproliferative activity against human NCI-H1975 cells over expressing EGFR after 48 hrs by MTT assay; assay type: functional, cell-based; settings: NCI-H1975, 48 h
HepG2 = assay: Antiproliferative activity against human HepG2 cells over expressing EGFR after 48 hrs by MTT assay; assay type: functional, cell-based; settings: HepG2, 48 h
[2] = molecular target: Epidermal growth factor receptor (Homo sapiens) (UniProt P00533); settings: NCI-H1975, at 1 µM
Sequence of Epidermal growth factor receptor (Homo sapiens) (P00533 whole entry): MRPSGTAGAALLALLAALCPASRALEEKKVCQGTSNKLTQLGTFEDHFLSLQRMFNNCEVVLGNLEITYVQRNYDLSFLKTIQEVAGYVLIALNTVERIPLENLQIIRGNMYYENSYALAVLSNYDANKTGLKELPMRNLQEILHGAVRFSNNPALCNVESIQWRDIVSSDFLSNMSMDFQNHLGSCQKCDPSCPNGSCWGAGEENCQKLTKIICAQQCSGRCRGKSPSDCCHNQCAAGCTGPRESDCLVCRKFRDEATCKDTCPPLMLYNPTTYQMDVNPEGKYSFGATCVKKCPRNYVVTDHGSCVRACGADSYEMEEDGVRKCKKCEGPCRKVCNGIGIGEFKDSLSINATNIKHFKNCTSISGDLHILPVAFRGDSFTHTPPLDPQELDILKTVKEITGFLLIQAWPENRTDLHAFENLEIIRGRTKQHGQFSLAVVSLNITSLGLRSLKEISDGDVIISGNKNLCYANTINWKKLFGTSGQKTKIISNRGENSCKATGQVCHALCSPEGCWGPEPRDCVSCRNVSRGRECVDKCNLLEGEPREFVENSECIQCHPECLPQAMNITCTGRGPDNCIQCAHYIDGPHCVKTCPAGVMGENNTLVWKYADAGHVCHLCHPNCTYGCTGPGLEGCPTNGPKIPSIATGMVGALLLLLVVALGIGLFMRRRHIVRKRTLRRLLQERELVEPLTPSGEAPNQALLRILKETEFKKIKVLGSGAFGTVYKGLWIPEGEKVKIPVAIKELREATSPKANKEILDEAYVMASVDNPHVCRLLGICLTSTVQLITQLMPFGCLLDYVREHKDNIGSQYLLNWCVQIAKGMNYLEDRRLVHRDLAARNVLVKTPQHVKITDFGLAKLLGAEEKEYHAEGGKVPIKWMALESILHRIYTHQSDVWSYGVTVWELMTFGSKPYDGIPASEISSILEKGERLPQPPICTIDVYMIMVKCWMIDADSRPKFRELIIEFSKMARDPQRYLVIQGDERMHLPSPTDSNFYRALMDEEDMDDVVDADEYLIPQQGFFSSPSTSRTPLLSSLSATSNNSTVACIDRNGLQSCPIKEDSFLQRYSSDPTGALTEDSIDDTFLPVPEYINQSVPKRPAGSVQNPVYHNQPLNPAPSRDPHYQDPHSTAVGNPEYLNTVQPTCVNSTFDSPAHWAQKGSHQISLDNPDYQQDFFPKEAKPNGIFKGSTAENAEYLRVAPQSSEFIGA
Description: Inhibition of EGFR autophosphorylation at Tyr1068 site in human NCI-H1975 cells at 1 uM by western blotting analysis

SMILES	IC50 [1]	IC50 (NCI-H1975)	IC50 (HepG2)	inhibition [2]
Brc1cccc(Nc2ncnc3ccccc23)c1	24.7 µM	10.6 µM	78.6 µM	
CN(C)CCC(=O)Nc1ccc2ncnc(Nc3ccc(F)c(Cl)c3)c2c1	9.54 µM	0.36 µM	9.36 µM	Active
Cc1nc(Nc2ccc(F)c(Cl)c2)c2cc(NC(=O)CCN3CCOCC3)ccc2n1	3.26 µM	1.14 µM	1.98 µM	
CNCCC(=O)Nc1ccc2ncnc(Nc3ccc(F)c(Cl)c3)c2c1	20.9 µM	0.68 µM	14.8 µM	
c1ccc(Nc2ncnc3ccccc23)cc1	35.6 µM	35.6 µM	65.8 µM	
Fc1ccc(Nc2ncnc3ccccc23)cc1Cl	50.1 µM	4.51 µM	> 100 µM	
Cc1nc(Nc2ccc(F)c(Cl)c2)c2cc(NC(=O)CCN3CCCCC3)ccc2n1	2.84 µM	0.87 µM	3.21 µM	
Fc1ccccc1Nc1ncnc2ccccc12	93.9 µM	10.6 µM	69.3 µM	
Fc1ccc(Nc2ncnc3ccccc23)cc1	22 µM	23.5 µM	29 µM	
Cc1nc(Nc2ccc(F)c(Cl)c2)c2cc(NC(=O)CCN(C)C)ccc2n1	1.04 µM	0.11 µM	1.86 µM	Active
O=C(CCN1CCCCC1)Nc1ccc2ncnc(Nc3ccc(F)c(Cl)c3)c2c1	12.6 µM	1.85 µM	8.59 µM	
COc1cccc(Nc2ncnc3ccccc23)c1	15.6 µM	31.3 µM	24.2 µM	
Clc1cccc(Nc2ncnc3ccccc23)c1	22 µM	10.4 µM	23.5 µM	
CNCCC(=O)Nc1ccc2nc(C)nc(Nc3ccc(F)c(Cl)c3)c2c1	1.98 µM	0.48 µM	1.13 µM	
O=C(CCN1CCOCC1)Nc1ccc2ncnc(Nc3ccc(F)c(Cl)c3)c2c1	19.6 µM	3.01 µM	16.3 µM	
Fc1cccc(Nc2ncnc3ccccc23)c1	15 µM	7.58 µM	13.2 µM	
